Reference: US20250376468A1, “PYRAZOLO[1,5-a]PYRIDINE DERIVATIVES FOR TREATING TRPM3-MEDIATED DISORDERS” (Katholieke Universiteit Leuven, priority 2022, published 2025)

target: T1, mouse TRPM3α2 (mTRPM3) ion channel (Mus musculus, UniProt J9SQF3); assay: TRPM3 ion channel driven Ca2+ uptake, Fluo-4 AM assay, stimulated with pregnenolone sulfate (50 μM); assay type: cell-based; settings: TRPM3 overexpressing flip-in HEK293 cells, PS 50 μM, 2.4 mM Ca2+
T1 construct: expressed in transfected cells; host or cells: flip-in HEK293 (Flp-In HEK293) overexpressing mTRPM3alpha2
T1 sequence (J9SQF3 1-1709 isoform J9SQF3-12): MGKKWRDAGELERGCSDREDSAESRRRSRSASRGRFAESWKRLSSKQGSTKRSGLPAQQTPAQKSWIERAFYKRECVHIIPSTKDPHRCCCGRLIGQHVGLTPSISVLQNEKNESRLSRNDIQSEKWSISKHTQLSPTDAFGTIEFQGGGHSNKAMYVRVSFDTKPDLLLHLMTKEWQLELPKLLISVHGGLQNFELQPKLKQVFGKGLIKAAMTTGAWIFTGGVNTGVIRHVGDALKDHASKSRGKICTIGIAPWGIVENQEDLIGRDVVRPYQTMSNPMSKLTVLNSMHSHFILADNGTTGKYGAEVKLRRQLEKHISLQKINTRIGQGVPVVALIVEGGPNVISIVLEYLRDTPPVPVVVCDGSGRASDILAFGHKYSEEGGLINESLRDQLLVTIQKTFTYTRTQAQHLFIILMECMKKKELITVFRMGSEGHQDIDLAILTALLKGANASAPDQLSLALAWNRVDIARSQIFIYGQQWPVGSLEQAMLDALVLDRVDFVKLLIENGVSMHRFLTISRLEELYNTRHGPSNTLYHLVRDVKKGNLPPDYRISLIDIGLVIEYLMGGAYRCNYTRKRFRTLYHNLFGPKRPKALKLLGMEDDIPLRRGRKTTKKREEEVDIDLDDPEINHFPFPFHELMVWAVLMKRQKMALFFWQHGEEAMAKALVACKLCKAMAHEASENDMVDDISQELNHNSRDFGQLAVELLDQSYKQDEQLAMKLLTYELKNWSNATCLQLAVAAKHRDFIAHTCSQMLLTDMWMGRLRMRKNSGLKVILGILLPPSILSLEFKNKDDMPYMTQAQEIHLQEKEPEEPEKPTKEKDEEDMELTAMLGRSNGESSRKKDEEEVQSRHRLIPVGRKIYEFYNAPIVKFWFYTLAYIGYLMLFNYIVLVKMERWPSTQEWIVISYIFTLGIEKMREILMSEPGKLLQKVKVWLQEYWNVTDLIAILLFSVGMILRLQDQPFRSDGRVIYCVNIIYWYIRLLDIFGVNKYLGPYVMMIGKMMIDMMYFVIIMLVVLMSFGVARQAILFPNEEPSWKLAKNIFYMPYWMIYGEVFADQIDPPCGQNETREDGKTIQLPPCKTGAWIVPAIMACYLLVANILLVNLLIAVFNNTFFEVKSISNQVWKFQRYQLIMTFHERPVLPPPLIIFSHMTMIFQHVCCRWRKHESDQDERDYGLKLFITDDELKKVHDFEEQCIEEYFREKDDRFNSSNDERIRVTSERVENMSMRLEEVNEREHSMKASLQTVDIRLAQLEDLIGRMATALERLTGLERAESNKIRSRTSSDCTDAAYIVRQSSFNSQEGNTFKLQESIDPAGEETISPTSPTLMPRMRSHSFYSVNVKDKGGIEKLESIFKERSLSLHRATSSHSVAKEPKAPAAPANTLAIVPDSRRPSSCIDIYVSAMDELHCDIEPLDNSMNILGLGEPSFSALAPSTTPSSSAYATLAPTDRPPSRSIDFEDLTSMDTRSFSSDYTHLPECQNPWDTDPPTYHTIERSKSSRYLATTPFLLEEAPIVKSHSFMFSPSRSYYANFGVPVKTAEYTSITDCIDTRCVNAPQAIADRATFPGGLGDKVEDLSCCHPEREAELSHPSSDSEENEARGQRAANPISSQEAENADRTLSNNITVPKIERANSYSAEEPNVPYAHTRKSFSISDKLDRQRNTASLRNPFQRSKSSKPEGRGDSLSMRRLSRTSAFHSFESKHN
Protocol: In order to monitor the inhibition of the mouse TRPM3α2 (mTRPM3) ion channel by the compounds of the invention, a cellular system making use of an mTRPM3alpha2 or hTRPM3 overexpressing cell line (flip-in HEK293) was used. The TRPM3 channel was stimulated/opened with Pregnenolone sulfate (PS) (50 μM) which results in Ca^2+ influx.
For mTRPM3, the intracellular Ca^2+ was measured with a Calcium responsive dye, Fluor-4 AM ester (Invitrogen). Cells were cultured until a confluence of 80-90%, washed with Versene (Invitrogen) and detached from the surface by a short incubation with 0.05% Trypsin (Invitrogen). The […] was stopped by the addition of complete cell culture medium (DMEM, glutamax, 10% FCS, NEAA, Pen-Strep). Cells were collected and resuspended in Krebs buffer without Calcium at RT.
Prior the cell seeding (±2000 cells/well into a black, 384 well plate (Greiner)) the diluted compound was added in the assay plate, together with the PS dissolved in Krebs buffer containing Calcium. […] Directly after cell addition the plates were read on an Envision fluorescence reader (Perkin Elmer) by an Excitation of 485 nm and emission at 535 nm.
Channel inhibition was calculated compared to a non-PS stimulated control versus a condition stimulated with PS (50 μM) with vehicle. The ability of the compounds of the invention to inhibit this activity was determined as: Percentage inhibition=[1−((RFU determined for sample with test compound present−RFU determined for sample with positive control inhibitor) divided by (RFU determined in the presence of vehicle−RFU determined for sample with positive control inhibitor))]*100.
The activities of the Example compounds cpd 001-091 tested are depicted in the table below. All tested compounds show an activity in the Fluo-4 AM assay. The activity ranges A, B and C refer to IC50 values in the Fluo-4 AM assay as follows: “A”: IC50<1 μM; “B”: 1 μM≤IC50≤20 μM and “C”: IC50>20 μM.

Structure (SMILES) | IC50
Cc1nn2ccc(OCc3ccccc3F)cc2c1C(=O)N[C@H](C(N)=O)[C@@H](C)O [Cpd 007, (2S,3R)-2-({5-[(2-fluorophenyl)methoxy]-2-methylpyrazolo[1,5-a]pyridin-3-yl}formamido)-3-hydroxybutanamide] | < 1 µM
Cc1nn2ccc(OCc3ccccc3Cl)cc2c1C(=O)NC(C)(CO)CO [Cpd 014, 5-[(2-chlorophenyl)methoxy]-N-(1,3-dihydroxy-2-methylpropan-2-yl)-2-methylpyrazolo[1,5-a]pyridine-3-carboxamide] | < 1 µM
Cc1nn2ccc(OCc3ccccn3)cc2c1C(=O)N[C@H](CO)CC(N)=O [Cpd 076 - En1, (S)-4-hydroxy-3-({2-methyl-5-[(pyridin-2-yl)methoxy]pyrazolo[1,5-a]pyridin-3-yl}formamido)butanamide] | > 20 µM
Cc1nn2ccc(OCc3ccccc3F)cc2c1C(=O)NC(C)(C)C(N)=O [Cpd 004, 2-({5-[(2-fluorophenyl)methoxy]-2-methylpyrazolo[1,5-a]pyridin-3-yl}formamido)-2-methylpropanamide] | 1 to 20 µM
CNC(=O)C(C)(CO)NC(=O)c1c(C)nn2ccc(OCc3ccccc3F)cc12 (single isomer, unassigned) [Cpd 011 - En1, 2-({5-[(2-fluorophenyl)methoxy]-2-methylpyrazolo[1,5-a]pyridin-3-yl}formamido)-3-hydroxy-N,2-dimethylpropanamide] | < 1 µM
Cc1nn2ccc(OCc3ccccn3)cc2c1C(=O)NC(C)(CO)CC(F)F (single isomer, unassigned) [Cpd 038 - En2, N-(4,4-difluoro-1-hydroxy-2-methylbutan-2-yl)-2-methyl-5-[(pyridin-2-yl)methoxy]pyrazolo[1,5-a]pyridine-3-carboxamide] | < 1 µM
Cc1nn2ccc(OCc3ccccc3F)cc2c1C(=O)NC(C)(CO)C(N)=O (single isomer, unassigned) [Cpd 020 - En1, 2-({5-[(2-fluorophenyl)methoxy]-2-methylpyrazolo[1,5-a]pyridin-3-yl}formamido)-3-hydroxy-2-methylpropanamide] | < 1 µM
Cc1nn2ccc(OCc3ccccn3)cc2c1C(=O)NCC(F)(F)F [Cpd 042, 2-methyl-5-[(pyridin-2-yl)methoxy]-N-(2,2,2-trifluoroethyl)pyrazolo[1,5-a]pyridine-3-carboxamide] | > 20 µM
Cc1ncsc1COc1ccn2nc(C)c(C(=O)NC(C)(CO)CO)c2c1 [Cpd 008, N-(1,3-dihydroxy-2-methylpropan-2-yl)-2-methyl-5-[(4-methyl-1,3-thiazol-5-yl)methoxy]pyrazolo[1,5-a]pyridine-3-carboxamide] | 1 to 20 µM
Cc1nn2ccc(OCc3ccccc3F)cc2c1C(=O)N(C)C(C)(CO)C(N)=O (single isomer, unassigned) [Cpd 024 - En2, 2-(1-{5-[(2-fluorophenyl)methoxy]-2-methylpyrazolo[1,5-a]pyridin-3-yl}-N-methylformamido)-3-hydroxy-2-methylpropanamide] | 1 to 20 µM
Cc1nn2ccc(OCc3ccccc3F)cc2c1C(=O)N[C@@H](CO)C(N)=O [Cpd 003, (2S)-2-({5-[(2-fluorophenyl)methoxy]-2-methylpyrazolo[1,5-a]pyridin-3-yl}formamido)-3-hydroxypropanamide] | < 1 µM
Cc1nn2ccc(OCc3ccccc3Cl)cc2c1C(=O)N[C@@H](CO)C(N)=O [Cpd 012, (2S)-2-({5-[(2-chlorophenyl)methoxy]-2-methylpyrazolo[1,5-a]pyridin-3-yl}formamido)-3-hydroxypropanamide] | < 1 µM
Cc1nn2ccc(OCc3ccccc3F)cc2c1C(=O)NC1(CO)CCNC1=O (single isomer, unassigned) [Cpd 018 - En1, 5-[(2-fluorophenyl)methoxy]-N-[3-(hydroxymethyl)-2-oxopyrrolidin-3-yl]-2-methylpyrazolo[1,5-a]pyridine-3-carboxamide] | 1 to 20 µM
CNC(=O)C(C)(CO)NC(=O)c1c(C)nn2ccc(OCc3ccccc3F)cc12 (single isomer, unassigned) [Cpd 011 - En2, 2-({5-[(2-fluorophenyl)methoxy]-2-methylpyrazolo[1,5-a]pyridin-3-yl}formamido)-3-hydroxy-N,2-dimethylpropanamide] | 1 to 20 µM
Cc1nn2ccc(OCc3ccccn3)cc2c1C(=O)NC1CNCCC1(F)F (single isomer, unassigned) [Cpd 050 - En2, N-(4,4-difluoropiperidin-3-yl)-2-methyl-5-[(pyridin-2-yl)methoxy]pyrazolo[1,5-a]pyridine-3-carboxamide] | 1 to 20 µM
Cc1nn2ccc(OCc3ccccc3F)cc2c1C(=O)NC1(CO)CCNC1=O (single isomer, unassigned) [Cpd 018 - En2, 5-[(2-fluorophenyl)methoxy]-N-[3-(hydroxymethyl)-2-oxopyrrolidin-3-yl]-2-methylpyrazolo[1,5-a]pyridine-3-carboxamide] | < 1 µM
Cc1nn2ccc(OCc3ccccc3F)cc2c1C(=O)NC(C)(CO)C(N)=O (single isomer, unassigned) [Cpd 020 - En2, 2-({5-[(2-fluorophenyl)methoxy]-2-methylpyrazolo[1,5-a]pyridin-3-yl}formamido)-3-hydroxy-2-methylpropanamide] | 1 to 20 µM
Cc1nn2ccc(OCc3ccccn3)cc2c1C(=O)NCC(F)(F)c1ccccc1 [Cpd 046, N-(2,2-difluoro-2-phenylethyl)-2-methyl-5-[(pyridin-2-yl)methoxy]pyrazolo[1,5-a]pyridine-3-carboxamide] | > 20 µM
Cc1nn2ccc(OCc3ccccc3Cl)cc2c1C(=O)NC(C)(CO)C(N)=O (single isomer, unassigned) [Cpd 019 - En2, 2-({5-[(2-chlorophenyl)methoxy]-2-methylpyrazolo[1,5-a]pyridin-3-yl}formamido)-3-hydroxy-2-methylpropanamide] | 1 to 20 µM
